Test results published in article PMC6934184, “Selective DNA-PKcs inhibition extends the therapeutic index of localized radiotherapy and chemotherapy” (The Journal of Clinical Investigation, 2019).

Target: T1, CSNK1A1 (CK1 alpha 1) (Homo sapiens, UniProt P48729)
T1 construct: purchased Thermo Fisher Scientific (Life Technologies) SelectScreen
Test: SelectScreen Z'LYTE
Format: biochemical
Summary of the method: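 NU5455 was profiled across the SelectScreen Broad panel of kinase activity and binding assays. Z'LYTE reactions such as CSF1R ran at apparent Km ATP, while the Adapta CAMK1 assay used ATP listed as 10. Values are given as percent.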

T1 sequence (P48729 whole entry): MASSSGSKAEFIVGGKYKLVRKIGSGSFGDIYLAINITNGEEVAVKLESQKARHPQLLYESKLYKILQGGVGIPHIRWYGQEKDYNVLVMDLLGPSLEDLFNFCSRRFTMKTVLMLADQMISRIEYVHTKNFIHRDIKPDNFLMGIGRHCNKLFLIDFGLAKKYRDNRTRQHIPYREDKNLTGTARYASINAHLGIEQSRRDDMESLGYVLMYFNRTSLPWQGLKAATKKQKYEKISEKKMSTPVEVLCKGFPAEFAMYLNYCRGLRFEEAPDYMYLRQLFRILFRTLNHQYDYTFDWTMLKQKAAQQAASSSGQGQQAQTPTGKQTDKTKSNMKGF

## CN(C(=O)CN1CCOCC1)c1ccc2sc3c(-c4cccc5c(=O)cc(N6CC7CCC(C6)O7)oc45)cccc3c2c1 [NU5455]
  inhibition at 1 µM: 0.3%
